# Measurements as given in patent publication US10265421B2, “Hyperpolarized esters as metabolic markers in MR” (BRACCO IMAGING S.P.A., priority 2013, dated 2019).
# Columns and labels:
# [1] = test system: rat liver cancer cells (Morris7777); assay: In cell DNP conversion of hyperpolarized substrate in rat liver cancer cells; format: cell-based; conditions: whole Morris7777 cells, 10 million cells, 3.5 mM substrate, 37° C.
# Method: (§1) To the solution was added a DMSO solution of gadolinium complex [[α1,α4,α7-tris[(phenylmethoxy)methyl]-1,4,7,10-tetraazacyclododecane-1,4,7,10-tetraacetate(4-)]gadolinate(1-)]hydrogen (1.1 mg of a 100 μmol/g solution). The concentration of radical and gadolinium were 17 mM and 2.3 mM respectively.
# (§2) B) 30 μmol of solution A) was hyperpolarized. The sample was dissolved in 5 ml phosphate buffer (40 mM, pH 7.3). The pH after dissolution was 7.3.
# (§3) A) 10 million cells (either rat liver cancer cells (Morris7777) or human liver cancer cells (HEP-G2)) were harvested and redissolved in […] phosphate buffer (PBS). The cells in suspension were transferred to a 10 mm NMR tube and placed with a connecting tubing in a 14.1 T magnet at 37° C.
# (§4) A series of 30 degree pulses every 2 s (56 scans in total) was acquired. The acquisition was started just before injection of the hyperpolarized substrate.
# The two substrates were co-polarized without mixing the substrates. Following dissolution in 5 ml phosphate buffer (40 mM pH 7.3) with addition of 2.5 μl NaOH to neutralize the pyruvic acid (which is thus converted into the pyruvate anion form), the substrate mixture was injected into 10 million cells in suspension. The experiment was performed as described in Example 2.b. […]
# [2] = test system: human liver cancer cells (HepG2); assay: In cell DNP conversion of hyperpolarized substrate in human liver cancer cells; format: cell-based; conditions: whole HepG2 cells, 10 million cells, 3.5 mM substrate, 37° C.
# Method: as §1, §2, §3, §4
# carboxylesterase [3] = assay: In vivo localized dynamic 13C MRS in healthy liver and liver cancer; parameters: species or system rat; conditions: 0.4 mmol/kg i.v.
# Method: One million McA-RH7777 cells have been suspended in 0.2 mL of Dulbecco's Modified Eagle's Medium (DMEM) and injected under the hepatic capsula of the liver left lobe of anesthetized Buffalo rats.
# The sample was dissolved in 5 ml TRIS buffer (40 mM, pH 7) added with EDTA 100 mg/l. The pH after dissolution was 7.5.
# A total of 8 animals were used in the study. 4 rats were implanted with the tumour (i.e. tumour group) whereas the remaining animals were used as controls (i.e. liver group) in order to have a comparison between healthy and diseased tissue on the same strain. The metabolic fate of injected ethyl [1,3-^13C2]-acetoacetate was followed by means of a localised spectroscopy sequence which allows a selective acquisition of either tumour or healthy liver tissue. Acquisition started just before injecting the hyperpolarized substrate and comprised a series of 64 time-domain points sampled at a rate of 3 s. The applied flip angle was equal to 10 degrees.
# [4] = non-tumor and tumor bearing mice; cited from earlier work
# CE1 from pig's liver = assay: Carboxyl esterase activity on different ethyl esters (1H NMR); format: biochemical; conditions: 26 μmol substrate, pH 7.5, 37° C., 60 min
# Method: The experiments were performed with commercially available CE1 from pig's liver.
# The ethyl esters used as substrates are: ethyl acetoacetate (EAA); ethyl acetate (EA); ethyl butyrate (EB); ethyl pyroglutamate (EPG); ethyl pyruvate (EP); diethyl succinate (DES).
# Individual samples of the substrates were all made in the following way: 26 μmol was weighted in an eppendorf tube. 550 μl deuterated phosphate buffer (200 mM, pH 7.5) was added and the substrate was brought into solution by whirl mixing. The solution was transferred to a 5 mm NMR tube and inserted in the spectrometer at 37° C. A reference experiment was acquired on the substrate solution without enzyme after which 10 μl of an esterase stock solution (37 U/ml in deuterated phosphate buffer) was added in the top of the tube. The sample was mixed and returned to the spectrometer. A series of thermal 1D 1H NMR experiments were recorded every 5 min for 60 min. The data were analyzed and presented as peak intensity of the product scaled to the peak intensity of the substrate signal in the first spectrum.
# rat cancer cells = assay: Concentration dependent metabolism of hyperpolarized substrates in rat cancer cells; format: cell-based; conditions: approx. 1, 3.5 and 10 mM, 10 million cells, maximum peak intensity
# Source text: In all experiments 10 million cells were used. The experimental set-up from Example 2.b was applied. Data are shown as maximum peak intensity of either substrate or metabolite signals.
# [5] = DNP conversion of hyperpolarized substrates in human blood; format: in vitro ADME; conditions: 2.5 ml human blood, approx. 5 mM substrate
# Method: (§5) In all experiments 2.5 ml human blood or 2.5 ml rat blood was used. […] Data are presented as area under the curve of the metabolites divided by the substrate signal in the first spectrum and multiplied by 100 to obtain the unit, DNP conversion in percentage.
# [6] = DNP conversion of hyperpolarized substrates in rat blood; format: in vitro ADME; conditions: 2.5 ml rat blood, approx. 5 mM substrate
# Method: as §5
# [7] = anesthetized rat; cited from earlier work
# carboxylesterase [8] = assay: General carboxylesterase activity in sonicated cancer cells (spectrophotometric, NA substrate); format: biochemical; conditions: liver cancer cells (rat and human) and prostate cancer cells; 1 mM substrate, 10 min, 30 degrees
# Method: General carboxylesterase activity was determined spectrophotometrically using the carboxylesterase substrate 1-naphthyl acetate (NA) as described previously (Rudakova, 2011). Briefly, sonicated cells were incubated with 1 mM substrate in 150 mM phosphate buffer (pH 7.5), and generation of 1-naphtol was monitored at 322 nm and quantified from its extinction coefficient (2200 M−1 cm−1). The reaction is allowed to take place for 10 min at 30 degrees. […] Cells of different origin (rat hepatoma, Morris; human hepatoma, HepG2; human prostate carcinoma, PC-3; human breast carcinoma, MCF-7) were harvested and redissolved in phosphate buffer to a concentration of 10 million cells/ml. The sample composition was as follows: 923 μl phosphate buffer (150 mM pH 7.3)+77 μl NA solution (13 mM in acetone)+100 μl cells in suspension. The absorbance of the samples were compared to reference samples where acetone was added instead of substrate. The esterase activity was calculated using the extinction coefficient ε322=2200 M^−1 cm^−1.
# carboxylesterase [9] = assay: In vivo 13C CSI in rat liver with implanted Morris7777 tumor
# Method: 4 anesthetized Buffalo rats were injected under the hepatic capsula of the liver left lobe with one million McA-RH7777 cells suspended in 0.2 mL of Dulbecco's Modified Eagle's Medium (DMEM) medium.
# The sample was dissolved in 5 ml TRIS buffer (40 mM, pH 7) added with EDTA 100 mg/I. The pH after dissolution was 7.5.
# Chemical Shift Imaging (CSI) maps were acquired on a approx. 8 mm coronal slice placed in the abdominal region of the rat. The in plane field of view was set to 40×55 mm^2 and the corresponding matrix size was 14×14.
smiles,measurement,setting,value
"CCO[13C](=O)C[13C](C)=O [ethyl [1,3-^13C2]-acetoacetate]",build-up of hyperpolarized acetoacetate anion from hydrolysis,[1],possible to follow the build-up of the product
same,build-up of hyperpolarized acetoacetate anion from hydrolysis,[2],possible to follow the build-up of the product
same,"ramping up rate of metabolite signal, healthy liver with respect to cancer tissue",carboxylesterase [3]; localized spectroscopy,≥ 2
same,uptake and conversion in liver cells in vivo,carboxylesterase [3]; healthy and diseased liver,taken up by both healthy and diseased liver cells and converted into its hyperpolarized metabolite
same,conversion in vivo,[4],rapidly converted into acetoacetate
"CCOC(=O)C(C)=O [ethyl pyruvate, reference compound]",conversion (turnover) by CE1,CE1 from pig's liver,no conversion at all could be measured
"CC(=O)C(=O)O [[1-^13C]-pyruvate, reference compound]",change of metabolite signal with increasing substrate concentration,rat cancer cells,unchanged going from 3 mM to 10 mM
same,build-up of metabolite signal in human blood,[5],build-up of lactate is significant
same,build-up of metabolite signal in rat blood,[6],build-up of lactate is significant
CCOC(=O)CCC(=O)O [mono-ester],conversion (turnover) by CE1,CE1 from pig's liver,not a substrate for CE1
CCO[13C](=O)C(C)=O [ethyl [1-^13C]-pyruvate],uptake into brain,[7],rapid and preferential
CCOC(=O)CC(C)=O [ethyl acetoacetate],carboxyl esterase activity (capacity of cells to hydrolyse substrate),carboxylesterase [8],up to 95 mU/million cells
same,change of metabolite signal with increasing substrate concentration,rat cancer cells,increases almost quantitatively with increasing substrate concentration
same,build-up of metabolite signal in human blood,[5],no build-up of metabolite signal could be measured
same,build-up of metabolite signal in rat blood,[6],conversion of ethyl acetoacetate is seen
same,factor by which diethyl succinate is converted faster than this substrate,CE1 from pig's liver,~2
same,distribution of substrate signal (CSI map),"carboxylesterase [9]; Morris hepatocellular carcinoma bearing rat, 0.4 mmol/kg i.v., 20 s acquisition",mainly observed in the tumour mass
same,conversion in healthy liver during acquisition,"carboxylesterase [9]; healthy liver, 20 s acquisition time",almost completely converted
CCCC(=O)OCC [ethyl butyrate],factor by which diethyl succinate is converted faster than this substrate,CE1 from pig's liver,~2
CCOC(=O)CCC(=O)OCC [diethyl succinate],conversion (turnover) by CE1,CE1 from pig's liver,overall fastest converted substrate
CCOC(C)=O [ethyl acetate],factor by which diethyl succinate is converted faster than this substrate,CE1 from pig's liver,ten times faster converted
CCOC(=O)[C@@H]1CCC(=O)N1 [ethyl pyroglutamate],conversion (turnover) by CE1,CE1 from pig's liver,barely detectable
